Test results taken from patent publication US10130095B2, “Fungicidal compositions of pyrazolecarboxylic acid alkoxyamides” (BASF AGRO B.V., priority 2014, dated 2018).

Legend:
Septoria tritici = assay: in vivo preventive Septoria tritici test (wheat); details: 15 ppm a.i., evaluated 21 days after inoculation
Protocol: Solvent: 49 parts by weight of N,N-dimethylacetamide Emulsifier: 1 part by weight of alkylaryl polyglycol ether To produce a suitable preparation of active compound, 1 part by weight of active compound or active compound combination is mixed with the stated amounts of solvent and emulsifier, and the concentrate is diluted with water to the desired concentration. To test for preventive activity, young plants are sprayed with the preparation of active compound or active compound combination at the stated rate of application. After the spray coating has been dried, the plants are sprayed with a spore suspension of Septoria tritici. The plants remain for 48 hours in an incubation cabinet at approximately 20° C. and a relative atmospheric humidity of approximately 100% and afterwards for 60 hours at approximately 15° C. in a translucent incubation cabinet at a relative atmospheric humidity of approximately 100%. The plants are placed in the greenhouse at a temperature of approximately 15° C. and a relative atmospheric humidity of approximately 80%. The test is evaluated 21 days after the inoculation. 0% means an efficacy which corresponds to that of the untreated control, while an efficacy of 100% means that no disease is observed.

Botrytis cinerea = assay: in vivo preventive test on Botrytis test (beans); details: evaluated 2 days after inoculation
Protocol: Solvent: 24.5 parts by weight of acetone • 24.5 parts by weight of dimethylacetamide Emulsifier: 1 part by weight of alkylaryl polyglycol ether To produce a suitable preparation of active compound, 1 part by weight of active compound is mixed with the stated amounts of solvent and emulsifier, and the concentrate is diluted with water to the desired concentration. To test for preventive activity, young plants are sprayed with the preparation of active compound. After the spray coating has dried on, 2 small pieces of agar covered with growth of Botrytis cinerea are placed on each leaf. The inoculated plants are placed in a darkened chamber at 20° C. and a relative at mospheric humidity of 100%. 2 days after the inoculation, the size of the lesions on the leaves is evaluated. 0% means an efficacy which corresponds to that of the untreated control, while an efficacy of 100% means that no disease is observed.

Venturia inaequalis = assay: in vivo preventive test on Venturia test (apples); details: evaluated 10 days after inoculation
Protocol: (§1) Solvent: 24.5 parts by weight of acetone • 24.5 parts by weight of dimethylacetamide Emulsifier: 1 part by weight of alkylaryl polyglycol ether To produce a suitable preparation of active compound, 1 part by weight of active compound is mixed with the stated amounts of solvent and emulsifier, and the concentrate is diluted with water to the desired concentration. To test for preventive activity, young plants are sprayed with the preparation of active compound at the stated rate of application. After the spray coating has dried on, the plants are inoculated with an aqueous conidia suspension of the causal agent of apple scab (Venturia inaequalis) and then remain for 1 day in an incubation cabinet at approximately 20° C. and a relative atmospheric humidity of 100%. The plants are then placed in a greenhouse at approximately 21° C. and a relative atmospheric humidity of approximately 90%. The test is evaluated 10 days after the inoculation. 0% means an efficacy which corresponds to that of the untreated control, while an efficacy of 100% means that no disease is observed.

Alternaria solani = assay: in vivo preventive test on Alternaria test (tomatoes); details: evaluated 3 days after inoculation
Protocol: as §1, with “aqueous spore” for “aqueous conidia”, “of Alternaria solani. The plants are” for “of the causal agent of apple scab (Venturia inaequalis) and”, “then placed” for “then remain for 1 day”, “The” for “The plants are then placed in a greenhouse at approximately 21° C. and a relative atmospheric humidity of approximately 90%. The”, “evaluated 3” for “evaluated 10”, “untreated control” for “untreated control,”

| SMILES | Efficacy in % found (Septoria tritici) [%] | Efficacy in % found (Botrytis cinerea; 5 ppm a.i.) [%] | Efficacy in % found (Venturia inaequalis; 1.25 ppm a.i.) [%] | Efficacy in % found (Alternaria solani; 1.25 ppm a.i.) [%] | Efficacy in % found (Alternaria solani; 2.5 ppm a.i.) [%] | Efficacy in % found (Venturia inaequalis; 0.125 ppm a.i.) [%] | Efficacy in % found (Botrytis cinerea; 0.5 ppm a.i.) [%] |
| --- | --- | --- | --- | --- | --- | --- | --- |
| CC(O)(Cn1cncn1)c1ccc(Oc2ccc(Cl)cc2)cc1C(F)(F)F (centres unmarked) [(B1-1), 2-[4-(4-Chlorophenoxy)-2-(trifluoromethyl)phenyl]-1-(1H-1,2,4-triazol-1-yl)propan-2-ol] | 0 | 20 |  |  |  |  |  |
| CCC(O)(Cn1cncn1)c1ccc(Oc2ccc(Cl)cc2)cc1C(F)(F)F (centres unmarked) [(B1-2), 2-[4-(4-chlorophenoxy)-2-(trifluoromethyl)phenyl]-1-(1H-1,2,4-triazol-1-yl)butan-2-ol] | 13 |  | 30 | 8 | 30 |  |  |
| CON(C(=O)c1cn(C)nc1C(F)F)C(C)Cc1c(Cl)cc(Cl)cc1Cl (centres unmarked) [(I-1), 3-(difluoromethyl)-N-methoxy-1-methyl-N-[1-(2,4,6-trichlorophenyl)propan-2-yl]-1H-pyrazole-4-carboxamide] |  |  |  |  |  | 76 | 8 |
